Columns and labels:
α1 receptor = α1 receptor binding affinity
Experimental: The compounds were tested for α1 binding affinity (column 3) by the procedure of A. L. Marrow et al, Mol. Pharmacol., 1986, 29, 321.

5-HT1A receptor [1] = target: T1, 5-HT1A receptor (Rattus norvegicus, UniProt P19327); assay: Oral 5-HT1A receptor antagonist activity: antagonism of 8-OH-DPAT syndrome in rats; assay type: in vivo
T1 sequence (P19327 1-422): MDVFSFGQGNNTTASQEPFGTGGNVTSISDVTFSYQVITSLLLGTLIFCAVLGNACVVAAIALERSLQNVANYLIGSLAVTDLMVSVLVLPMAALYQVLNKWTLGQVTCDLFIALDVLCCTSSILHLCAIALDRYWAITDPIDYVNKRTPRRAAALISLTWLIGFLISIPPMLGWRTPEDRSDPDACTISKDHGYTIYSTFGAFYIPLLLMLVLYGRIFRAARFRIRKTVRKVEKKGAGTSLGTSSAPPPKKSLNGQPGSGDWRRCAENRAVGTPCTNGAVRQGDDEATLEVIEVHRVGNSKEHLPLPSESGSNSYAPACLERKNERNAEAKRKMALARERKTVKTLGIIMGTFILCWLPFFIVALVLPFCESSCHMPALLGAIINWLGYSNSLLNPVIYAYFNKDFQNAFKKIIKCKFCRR
Experimental: 5-HT1A receptor antagonist activity (columns 5 and 6) is assessed by the ability of the selective 5-HT1A receptor agonist, 8-OH-DPAT, to induce the `8-OH-DPAT syndrome` in rats characterised by extended flat body posture, forepaw treading and hyperlocomotion. The 8-OH-DPAT syndrome is scored as present (definite syndrome response) or absent (equivocal or no syndrome response) during the period 0-5 min following intravenous (i.v.) administration of the test agonist via a lateral tail vein.
A range of doses, on a logarithmic scale and encompassing the expected ED50, were chosen for the test agonist following preliminary evaluation. […]
Test antagonists were administered orally (p.o.) 60 min, before i.v. administration of 8-OH-DPAT. ED50 values for 8-OH-DPAT were determined for the different pretreatment groups using the sequential up/down procedure as described above.
The response to the selective 5-HT1A receptor agonist, 8-OH-DPAT, is represented as an ED50 value for induction of the 8-OH-DPAT syndrome, which is determined using the sequential up/down analysis following intravenous administration. 5-HT1A antagonist activity is determined by the ability of the test compound to antagonise the response to 8-OH-DPAT, i.e. to increase the ED50 for induction of the 8-OH-DPAT syndrome compared with vehicle pretreatment. […]

5-HT1A receptor [2] = target: T1, 5-HT1A receptor; assay: 5-HT1A receptor binding affinity in rat hippocampal membrane homogenate; parameters: in rat hippocampal membrane homogenate; from tissue; host or cells: rat hippocampal membrane homogenate; settings: for IC50: rat hippocampal membrane homogenate; for Ratio 5HT1A / α1 (binding selectivity): ratio of 5-HT1A binding to α1 binding
Experimental: The compounds were tested for 5-HT1A binding affinity (column 2) in rat hippocampal membrane homogenate by the method of B. S. Alexander and M. D. Wood, J. Pharm. Pharmacol., 1988, 40, 888-891.

Structure (SMILES)	IC50 (α1 receptor) [nM]	5-HT1A antagonist Ratio (ED50 antagonist @ 3mg/kg po)/ED50 vehicle (5-HT1A receptor [1]; ED50 of 8-OH-DPAT (i.v.) after test compound 3 mg/kg p.o. divided by ED50 after vehicle, rats)	5-HT1A antagonist oral activity (in words) (5-HT1A receptor [1]; oral, compared to compounds of EP-A-512755)	5-HT1A binding affinity (in words) (5-HT1A receptor [2])	5-HT1A/α1 selectivity (in words) (5-HT1A receptor [2]; binding affinity at 5-HT1A compared to α1 receptors)	IC50 (5-HT1A receptor [2]) [nM]	Ratio 5HT1A / α1 (binding selectivity) (5-HT1A receptor [2])
O=C(C1CCCCC1)N(CCN1CCN(c2cccc3[nH]ccc23)CC1)c1ccccn1 [Compound A3]	1020	34.4	surprising increase in oral activity as 5-HT1A antagonists	good 5-HT1A binding affinity	good	3.2	317.5
C[C@H](CN1CCN(c2cccc3[nH]ccc23)CC1)N(C(=O)C1CCCCC1)c1ccccn1 [Compound A1, (R)-N-(1-methyl-2-(4-indolyl-1-piperazinyl)ethyl)-N-(2-pyridyl)-cyclohexanecarboxamide]	–	–	–	–	–	4.3	564.4
C[C@H](CN(C(=O)C1CCCCC1)c1ccccn1)N1CCN(c2cccc3[nH]ccc23)CC1 [Compound A2, (R)-N-(2-methyl-2-(4-indolyl-1-piperazinyl)ethyl)-N-(2-pyridyl)-cyclohexanecarboxamide]	–	–	–	–	–	6.8	142.5
